Measurements: the NIST ThermoML archive (doi:10.1021/je900182h)
Where “and” joins values, the source holds several entries; their conditions need not be identical. Equal entries are not always repeated. ± gives the expanded uncertainty stated by the source.

Conditions: Crystal

[Br][Ga]([Br])[Br] [gallium bromide]
vapor or sublimation pressure (300 K): 7.08e-05 ± 2.1e-05 kPa
vapor or sublimation pressure (302.5 K): 6.31e-05 ± 1.9e-05 kPa and 9.55e-05 ± 2.9e-05 kPa
vapor or sublimation pressure (303 K): 4.79e-05 ± 1.4e-05 kPa
vapor or sublimation pressure (304 K): 7.24e-05 ± 2.2e-05 kPa
vapor or sublimation pressure (304.5 K): 8.51e-05 ± 2.6e-05 kPa
vapor or sublimation pressure (305 K): 7.24e-05 ± 2.2e-05 kPa
vapor or sublimation pressure (306.5 K): 9.77e-05 ± 2.9e-05 kPa
vapor or sublimation pressure (307 K): 0.000141 ± 4.2e-05 kPa and 9.77e-05 ± 2.9e-05 kPa
vapor or sublimation pressure (307.5 K): 0.000126 ± 3.8e-05 kPa and 9.55e-05 ± 2.9e-05 kPa
vapor or sublimation pressure (308 K): 0.000126 ± 3.8e-05 kPa
vapor or sublimation pressure (309.5 K): 0.000145 ± 4.4e-05 kPa
vapor or sublimation pressure (310 K): 0.00017 ± 5.1e-05 kPa and 0.000123 ± 3.7e-05 kPa
vapor or sublimation pressure (310.5 K): 0.000141 ± 4.2e-05 kPa
vapor or sublimation pressure (311 K): 0.00024 ± 7.2e-05 kPa
vapor or sublimation pressure (311.7 K): 0.000263 ± 7.9e-05 kPa
vapor or sublimation pressure (312 K): 0.000214 ± 6.4e-05 kPa
vapor or sublimation pressure (312.5 K): 0.00017 ± 5.1e-05 kPa
vapor or sublimation pressure (313 K): 0.000257 ± 7.7e-05 kPa [middle of 4 runs]
vapor or sublimation pressure (313.5 K): 0.000219 ± 6.6e-05 kPa
vapor or sublimation pressure (314 K): 0.00038 ± 0.00011 kPa
vapor or sublimation pressure (314.5 K): 0.000339 ± 0.0001 kPa and 0.000219 ± 6.6e-05 kPa
vapor or sublimation pressure (315 K): 0.000339 ± 0.0001 kPa [middle of 4 runs]
vapor or sublimation pressure (315.5 K): 0.000263 ± 7.9e-05 kPa
vapor or sublimation pressure (316 K): 0.00038 ± 0.00011 kPa and 0.000245 ± 7.4e-05 kPa
vapor or sublimation pressure (316.5 K): 0.000288 ± 8.6e-05 kPa
vapor or sublimation pressure (317 K): 0.000331 ± 9.9e-05 kPa and 0.000295 ± 8.9e-05 kPa
vapor or sublimation pressure (317.5 K): 0.000525 ± 0.00016 kPa and 0.000339 ± 0.0001 kPa
vapor or sublimation pressure (318 K): 0.00055 ± 0.00016 kPa
vapor or sublimation pressure (318.5 K): 0.000513 ± 0.00015 kPa and 0.000339 ± 0.0001 kPa
vapor or sublimation pressure (319.5 K): 0.000589 ± 0.00018 kPa [middle of 4 runs]
vapor or sublimation pressure (320 K): 0.000617 ± 0.00018 kPa and 0.000363 ± 0.00011 kPa
vapor or sublimation pressure (321 K): 0.000851 ± 0.00026 kPa and 0.000759 ± 0.00023 kPa
vapor or sublimation pressure (321.5 K): 0.000575 ± 0.00017 kPa
vapor or sublimation pressure (322 K): 0.000759 ± 0.00023 kPa and 0.000912 ± 0.00027 kPa and 0.000525 ± 0.00016 kPa
vapor or sublimation pressure (322.5 K): 0.000891 ± 0.00027 kPa and 0.000589 ± 0.00018 kPa
vapor or sublimation pressure (323 K): 0.0011 ± 0.00033 kPa and 0.000977 ± 0.00029 kPa and 0.000661 ± 0.0002 kPa
vapor or sublimation pressure (323.5 K): 0.000724 ± 0.00022 kPa
vapor or sublimation pressure (324 K): 0.0011 ± 0.00033 kPa [middle of 4 runs]
vapor or sublimation pressure (324.5 K): 0.000708 ± 0.00021 kPa
vapor or sublimation pressure (325 K): 0.00141 ± 0.00042 kPa and 0.000724 ± 0.00022 kPa
vapor or sublimation pressure (325.5 K): 0.000813 ± 0.00024 kPa
vapor or sublimation pressure (326 K): 0.00141 ± 0.00042 kPa and 0.000832 ± 0.00025 kPa
vapor or sublimation pressure (326.5 K): 0.000955 ± 0.00029 kPa and 0.000832 ± 0.00025 kPa
vapor or sublimation pressure (327 K): 0.00117 ± 0.00035 kPa and 0.000977 ± 0.00029 kPa
vapor or sublimation pressure (327.5 K): 0.00151 ± 0.00045 kPa [middle of 4 runs]
vapor or sublimation pressure (328 K): 0.00191 ± 0.00057 kPa and 0.00105 ± 0.00032 kPa
vapor or sublimation pressure (328.5 K): 0.00178 ± 0.00053 kPa and 0.000977 ± 0.00029 kPa
vapor or sublimation pressure (329.5 K): 0.00148 ± 0.00044 kPa and 0.00123 ± 0.00037 kPa
vapor or sublimation pressure (330 K): 0.00251 ± 0.00075 kPa and 0.00141 ± 0.00042 kPa and 0.00158 ± 0.00047 kPa
vapor or sublimation pressure (331 K): 0.00263 ± 0.00079 kPa and 0.00257 ± 0.00077 kPa
vapor or sublimation pressure (331.5 K): 0.00204 ± 0.00061 kPa
vapor or sublimation pressure (332 K): 0.00324 ± 0.00097 kPa and 0.00191 ± 0.00057 kPa
vapor or sublimation pressure (332.5 K): 0.00174 ± 0.00052 kPa
vapor or sublimation pressure (333 K): 0.00214 ± 0.00064 kPa [middle of 4 runs]
vapor or sublimation pressure (333.5 K): 0.00331 ± 0.00099 kPa and 0.00204 ± 0.00061 kPa
vapor or sublimation pressure (334 K): 0.00398 ± 0.0012 kPa and 0.00234 ± 0.0007 kPa
vapor or sublimation pressure (335 K): 0.00437 ± 0.0013 kPa and 0.00417 ± 0.0013 kPa and 0.00191 ± 0.00057 kPa
vapor or sublimation pressure (335.5 K): 0.00263 ± 0.00079 kPa
vapor or sublimation pressure (336 K): 0.00324 ± 0.00097 kPa [middle of 4 runs]
vapor or sublimation pressure (337 K): 0.00339 ± 0.001 kPa
vapor or sublimation pressure (338 K): 0.0055 ± 0.0016 kPa and 0.00363 ± 0.0011 kPa and 0.00309 ± 0.00093 kPa
vapor or sublimation pressure (339.5 K): 0.00525 ± 0.0016 kPa
vapor or sublimation pressure (340 K): 0.00407 ± 0.0012 kPa and 0.00427 ± 0.0013 kPa and 0.00437 ± 0.0013 kPa
vapor or sublimation pressure (340.5 K): 0.00437 ± 0.0013 kPa
vapor or sublimation pressure (341 K): 0.00759 ± 0.0023 kPa and 0.00427 ± 0.0013 kPa
vapor or sublimation pressure (342 K): 0.00501 ± 0.0015 kPa
vapor or sublimation pressure (343 K): 0.00759 ± 0.0023 kPa and 0.00589 ± 0.0018 kPa
vapor or sublimation pressure (343.5 K): 0.00603 ± 0.0018 kPa
vapor or sublimation pressure (344 K): 0.00617 ± 0.0019 kPa
vapor or sublimation pressure (344.5 K): 0.00708 ± 0.0021 kPa
vapor or sublimation pressure (345 K): 0.00661 ± 0.002 kPa and 0.00676 ± 0.002 kPa
vapor or sublimation pressure (346 K): 0.00794 ± 0.0024 kPa [middle of 4 runs]
vapor or sublimation pressure (346.5 K): 0.00871 ± 0.0026 kPa
vapor or sublimation pressure (347 K): 0.0135 ± 0.0041 kPa
vapor or sublimation pressure (348 K): 0.00871 ± 0.0026 kPa and 0.00955 ± 0.0029 kPa
vapor or sublimation pressure (349 K): 0.01 ± 0.003 kPa and 0.012 ± 0.0036 kPa and 0.0105 ± 0.0032 kPa
vapor or sublimation pressure (350.5 K): 0.0115 ± 0.0035 kPa
vapor or sublimation pressure (351 K): 0.0186 ± 0.0056 kPa and 0.0117 ± 0.0035 kPa
vapor or sublimation pressure (352 K): 0.0145 ± 0.0044 kPa
vapor or sublimation pressure (354.5 K): 0.0174 ± 0.0052 kPa
vapor or sublimation pressure (357 K): 0.0195 ± 0.0059 kPa
